# Measured values: PubChem BioAssay (NCI)
# “And” between values parts separate entries of the source, which are not always exact repeats. Equal values may be shown once.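 Exposure lasted 48 hours, with cells grown in 96-well plates and compounds tested at five concentrations. GI50 marks 50% less growth. TGI marks complete inhibition of growth.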 *1 amine or outer side, *2 acyl side, *3 side chain or, on linkers, in order; H or OH if unused. Where a SMILES comes first, the peptide text is derived from it. [ ]: non-standard residue; d: D form. The star is where a group is joined. ξ: configuration not given here. X11 = CCC(=O)CC(O)CC(C)CC(N[*:1])C(=O)[*:2]; ξLeu(3ξ-OH) = CC(C)C(O)C(N)C(=O)O; ξPro(4ξ-Me) = CC1CNC(C(=O)O)C1; X10 = CCC(C)/C=C/C(=O)*; Aib = CC(C)(N)C(=O)O; X12 = CC(CN(C)C)N*; βAla = NCCC(=O)O
# Columns and labels:
# Test in all cases: NCI-60 cell line screen, 48 h
# [1] = system: OVCAR-4 ovarian
# [2] = system: A498 renal
# [3] = system: IGROV1 ovarian
# [4] = system: MDA-MB-435
# [5] = system: NCI-H522 lung
# [6] = system: HL-60(TB) leukemia
# [7] = system: CAKI-1 renal
# [8] = system: UACC-62 melanoma
# [9] = system: SF-295 CNS
# [10] = system: OVCAR-8 ovarian
# [11] = system: SF-539 CNS
# [12] = system: U251 CNS
# [13] = system: SK-MEL-2 melanoma
# [14] = system: T-47D breast
# [15] = system: CCRF-CEM leukemia
# [16] = system: SK-MEL-28 melanoma
# [17] = system: UO-31 renal
# [18] = system: NCI-H226 lung
# [19] = system: HOP-92 NSCLC
# [20] = system: RPMI-8226 leukemia
# [21] = system: HS 578T breast
# [22] = system: SF-268 CNS
# [23] = system: SK-MEL-5 melanoma
# [24] = system: LOX IMVI melanoma
# [25] = system: HT29 colon
# [26] = system: SN12C renal
# [27] = system: MOLT-4 leukemia
# [28] = system: MALME-3M melanoma
# [29] = system: BT-549 breast
# [30] = system: RXF 393 renal
# [31] = system: UACC-257 melanoma
# [32] = system: EKVX NSCLC
# [33] = system: A549 NSCLC
# [34] = system: NCI-H23 lung
# [35] = system: K-562 leukemia
# [36] = system: DU-145 prostate
# [37] = system: SNB-75 CNS
# [38] = system: KM12 colon
# [39] = system: TK-10 renal
# [40] = system: 786-0 renal
# [41] = system: SW-620 colon
# [42] = system: HCT-15 colon
# [43] = system: OVCAR-3 ovarian
# [44] = system: PC-3 prostate
# [45] = system: HCC-2998 colon
# [46] = system: M14 melanoma
# [47] = system: ACHN renal
# [48] = system: SNB-19 CNS
# [49] = system: MDA-MB-231 breast
# [50] = system: OVCAR-5 ovarian
# [51] = system: NCI-H460 lung
# [52] = system: SK-OV-3 ovarian
# [53] = system: NCI/ADR-RES ovarian
# [54] = system: MCF7 breast
# [55] = system: HOP-62 NSCLC
# [56] = system: HCT-116 colon
# [57] = system: COLO 205 colon
smiles,measurement,setting,value
COc1cc2c(OC)c3cc(C)oc(=O)c3c(O)c2c(O)c1-c1c(OC)cc2c(OC)c3cc(C)oc(=O)c3c(O)c2c1O,TGI,[1],> 100000 nM
same,TGI,[2],51000 nM
same,TGI,[3],31100 nM
same,TGI,[4],33900 nM
same,TGI,[5],40000 nM
same,TGI,[6],33900 nM
same,TGI,[7],47000 nM
same,TGI,[8],41000 nM
same,TGI,[9],39700 nM
same,TGI,[10],30000 nM
same,TGI,[11],35700 nM
same,TGI,[12],31700 nM
same,TGI,[13],35800 nM
same,TGI,[14],> 100000 nM
same,TGI,[15],39300 nM
same,TGI,[16],53500 nM
same,TGI,[17],35900 nM
same,TGI,[18],38200 nM
same,TGI,[19],55900 nM
same,TGI,[20],40200 nM
same,TGI,[21],> 100000 nM
same,TGI,[22],42600 nM
same,TGI,[23],35800 nM
same,TGI,[24],43800 nM
same,TGI,[25],55300 nM
same,TGI,[26],45200 nM
same,TGI,[27],31800 nM
same,TGI,[28],37200 nM
same,TGI,[29],68500 nM
same,TGI,[30],35900 nM
same,TGI,[31],44100 nM
same,TGI,[32],62300 nM
same,TGI,[33],38900 nM
same,TGI,[34],32500 nM
same,TGI,[35],34300 nM
same,TGI,[36],> 100000 nM
same,TGI,[37],> 100000 nM
same,TGI,[38],40400 nM
same,TGI,[39],66800 nM
same,TGI,[40],60800 nM
same,TGI,[41],> 100000 nM
same,TGI,[42],39400 nM
same,TGI,[43],33900 nM
same,TGI,[44],33000 nM
same,TGI,[45],33500 nM
same,TGI,[46],35400 nM
same,TGI,[47],33300 nM
same,TGI,[48],65100 nM
same,TGI,[49],36600 nM
same,TGI,[50],40900 nM
same,TGI,[51],42500 nM
same,TGI,[52],> 100000 nM
same,TGI,[53],35700 nM
same,TGI,[54],51100 nM
same,TGI,[55],30100 nM
same,TGI,[56],28000 nM
CC[n+]1c(/C=C/c2ccc(N3CCCC3)cc2)cccc1/C=C/c1ccc(N2CCCC2)cc1,GI50,[1],38.6 nM
same,TGI,[1],1290 nM
same,GI50,[2],344 nM and 239 nM
same,TGI,[2],1150 nM and 828 nM
same,GI50,[3],532 nM
same,TGI,[3],2400 nM
same,GI50,[4],343 nM
same,TGI,[4],2340 nM
same,GI50,[5],239 nM
same,TGI,[5],2080 nM
same,GI50,[6],49 nM and 391 nM
same,GI50,[7],145 nM
same,TGI,[7],1360 nM
same,GI50,[8],356 nM and 387 nM
same,TGI,[8],1700 nM and 1670 nM
same,GI50,[57],164 nM
same,TGI,[57],341 nM
same,GI50,[9],263 nM
same,TGI,[9],1900 nM
same,GI50,[10],248 nM and 124 nM
same,TGI,[10],1610 nM and 953 nM
same,GI50,[11],274 nM
same,TGI,[11],1440 nM
same,GI50,[12],202 nM
same,TGI,[12],1040 nM
same,GI50,[13],560 nM
same,TGI,[13],2380 nM
same,GI50,[14],33.2 nM
same,TGI,[14],931 nM
same,GI50,[16],194 nM and 169 nM
same,TGI,[16],374 nM and 321 nM
same,GI50,[17],376 nM
same,TGI,[17],1600 nM
same,GI50,[18],146 nM
same,TGI,[18],1490 nM
same,GI50,[19],342 nM
same,TGI,[19],1410 nM
same,GI50,[20],7.2 nM and 14.9 nM
same,TGI,[20],131 nM and 261 nM
same,GI50,[21],273 nM
same,TGI,[21],1460 nM
same,GI50,[22],449 nM
same,TGI,[22],1580 nM
same,GI50,[23],116 nM
same,TGI,[23],274 nM
same,GI50,[24],220 nM and 145 nM
same,TGI,[24],1620 nM and 1450 nM
same,GI50,[25],115 nM
same,TGI,[25],375 nM
same,GI50,[26],217 nM and 271 nM
same,TGI,[26],1140 nM and 1060 nM
same,GI50,[27],128 nM and 354 nM
same,GI50,[28],293 nM
same,TGI,[28],2130 nM
same,GI50,[29],103 nM
same,TGI,[29],1760 nM
same,GI50,[30],207 nM
same,TGI,[30],1510 nM
same,GI50,[31],190 nM
same,TGI,[31],773 nM
same,GI50,[32],83.2 nM
same,TGI,[32],2080 nM
same,GI50,[33],296 nM and 260 nM
same,TGI,[33],1650 nM and 919 nM
same,GI50,[34],74.3 nM and 87.6 nM
same,TGI,[34],982 nM and 1410 nM
same,TGI,[35],> 100000 nM
same,GI50,[36],312 nM and 240 nM
same,TGI,[36],1190 nM and 1220 nM
same,GI50,[37],160 nM
same,TGI,[37],880 nM
same,GI50,[38],116 nM
same,TGI,[38],238 nM
same,GI50,[39],359 nM
same,TGI,[39],2380 nM
same,GI50,[40],247 nM
same,TGI,[40],1200 nM
same,GI50,[41],287 nM and 233 nM
same,TGI,[41],1110 nM and 1030 nM
same,GI50,[42],332 nM
same,TGI,[42],1230 nM
same,GI50,[43],255 nM
same,TGI,[43],811 nM
same,GI50,[44],194 nM
same,TGI,[44],1230 nM
same,GI50,[45],181 nM
same,TGI,[45],338 nM
same,GI50,[46],345 nM
same,TGI,[46],1850 nM
same,GI50,[47],180 nM and 240 nM
same,TGI,[47],915 nM and 1140 nM
same,GI50,[48],310 nM
same,TGI,[48],1550 nM
same,GI50,[49],264 nM and 268 nM
same,TGI,[49],1290 nM and 1110 nM
same,GI50,[50],476 nM
same,TGI,[50],1480 nM
same,GI50,[51],293 nM
same,TGI,[51],1150 nM
same,GI50,[52],228 nM
same,TGI,[52],897 nM
same,GI50,[53],466 nM
same,TGI,[53],1950 nM
same,GI50,[54],213 nM
same,TGI,[54],1350 nM
same,GI50,[55],414 nM
same,TGI,[55],1460 nM
same,GI50,[56],83.8 nM
same,TGI,[56],1280 nM
CCC(=O)CC(O)CC(C)CC(NC(=O)C1CC(C)CN1C(=O)/C=C/C(C)CC)C(=O)NC(C(=O)NC(C)(C)C(=O)NC(CC(C)C)C(=O)NC(CC(C)C)C(=O)NC(C)(C)C(=O)NC(C)(C)C(=O)NCCC(=O)NC(C)CN(C)C)C(O)C(C)C (stereo not given) (X10-[ξPro(4ξ-Me)][X11][ξLeu(3ξ-OH)][Aib]LL[Aib][Aib][βAla]-X12; configuration not given here),TGI,[18],3620 nM
same,TGI,[19],1090 nM
same,TGI,[29],11300 nM
same,TGI,[31],17000 nM
same,TGI,[34],7700 nM
